Assay results reported in patent US10682330B2, “Method for producing liposome encapsulating paclitaxel monoglycoside and/or docetaxel monoglycoside” (ENSUIKO SUGAR REFINING CO., LTD., priority 2012, dated 2020).
In brackets after ≈: the same amount, converted by molar mass.

Legend:
[1] = system: SK-BR-3, human-derived breast cancer cell; assay: Anti-cancer activity, MTT assay (Test Example 3); format: cell-based; conditions: PTX, gPTX dissolved in DMSO, liposomes prepared with gPTX in 40% ethylene glycol solution; for IC50: Homo sapiens
Description: IC50 of each of the PTX and gPTX dissolved in DMSO, and gPTX-L and gPTX-IL prepared by using gPTX dissolved in a 40% (volume) ethylene glycol solution was measured by an MTT assay. As a test target cell, SK-BR-3, which is a human-derived breast cancer cell, was used. IT50 was also calculated. IT50 indicates the half of time required for attaining the drug concentration at which all of the cells die, and can be easily calculated based on the survival curve obtained by plotting the percentage of cell viability to the time axis.

[2] = system: HT-29, colon adenocarcinoma cell; assay: Anti-cancer activity, MTT assay on HT-29 (Test Example 9); format: cell-based; conditions: for IC100 / IC50: 72 hours; for IC50: Homo sapiens; for IT50: drug added at IC100
Description: (§1) In the same manner as in Test Example 3, anti-cancer activity was measured. SK-BR-3, which is a human-derived breast cancer cell, and HT-29, which is a colon adenocarcinoma cell, were used. Specifically, cells were seeded to a 96 well-plate at 5000 cells/well, and incubated for 24 hours. Then, PTX, gPTX, gPTX-L, and gPTX-IL were separately added at different concentrations, followed by incubation.
(§2) 72 hours later, the percentage of cell viability was calculated by an MTT assay. First, the concentration (IC50) at which 50% of the cells die was obtained from the survival curve. Subsequently, the time (IT50) at which 50% of the cells die was obtained from the survival curve. After the cells were seeded, PTX, gPTX, gPTX-L, or gPTX-IL was added at a concentration attaining IC100, which was obtained from the survival curve. Incubation was then performed for 1, 2, 6, 12, 24, 48, or 72 hours, and then medium exchange was performed. 72 hours after the drug addition, the MTT assay was performed in the same manner as in the above experiment to obtain the survival rate, and calculate the IT50 therefrom.

[3] = system: SK-BR-3, human-derived breast cancer cell; assay: Anti-cancer activity, MTT assay on SK-BR-3 (Test Example 9); format: cell-based; conditions: for IC50: Homo sapiens; for IC50 / IT50: SK-BR-3; for IC50 / IC100: SK-BR3, 72 hours; for IT50: drug added at IC100
Description: as §1, §2

[4] = Encapsulation efficiency and loading efficiency in liposome by HPLC (Test Example 2); format: physicochemical; conditions: drug solution in 40% EG (1 mg/mL), comparative example
Description: Subsequently, after the eggplant flask was immersed in a hot bath at 60° C. for five minutes, a gPTX solution (1 ml) (Cremophor:ethanol:ultra-pure water=12:12:76, volume ratio) adjusted to a concentration of 20 mg/ml, or a PTX solution (Cremophor:ethanol:ultra-pure water=12:12:76, volume ratio) at a concentration of 2 mg/ml was added thereto to dissolve the lipid film, thus preparing a multilamellar vesicle (MLV).
In a comparative example, the above-mentioned 1 mg/ml gPTX solution (10 mM phosphate buffer containing 40% (volume) ethylene glycol) was used in place of the 20 mg of gPTX solution to encapsulate gPTX in a liposome.
The efficiency of paclitaxel monoglycoside encapsulated in the obtained liposome or immunoliposome was calculated as follows. First, the standard curve of each of the gPTX and PTX was obtained. […]
Next, 0.1% Triton X-100 ( 1/10 volume) was added to a prepared liposome, and the liposome was broken by sonication. Thereafter, the solution (10 μl) was measured by HPLC, and the encapsulated drug amount was obtained using the standard curve. […]
Using the following formulae (1) and (2), the encapsulation efficiency (EE) and loading efficiency (LE) were calculated based on the obtained drug amount. […]

[5] = Solubility in mixed solvent Cremophor EL:ethanol:PBS (pH 7.4) 12:12:76 (Test Example 1); format: physicochemical; conditions: for solubility: Cremophor EL:ethanol:PBS 12:12:76 mixed solvent, pH 7.4, aqueous with cosolvent or surfactant or cyclodextrin, ethanol, Cremophor EL, PBS pH 7.4 (12:12:76); for Concentration at which dissolved: Cremophor:ethanol:PBS (pH 7.4) 12:12:76
Description: Powdery gPTX and paclitaxel (hereinbelow, referred to as PTX in the Examples) produced by the method disclosed in NPL 1 were individually weighed in predetermined amounts, followed by addition of ethanol (120 μL) and mixing using a vortex. Cremophor® EL (available from Wako Pure Chemical Industries. Ltd.) (120 μL) was further mixed with each solution liquid, and then PBS (pH 7.4, 760 μL) was mixed. The solubility of each of the gPTX and PTX was confirmed.

[6] = Solubility in 10 mM phosphate buffer containing 10 to 40% ethylene glycol (Test Example 1); format: physicochemical; conditions: aqueous with cosolvent or surfactant or cyclodextrin
Description: In all cases, gPTX was mixed so that the concentration became 1 mg/mL.

[7] = system: HT-29 tumor; assay: In vivo anti-cancer activity, tumor volume (Test Example 11); design: species or system ICR-nu/nu mouse; conditions: tail vein two times, interval 3 hours; total gPTX 150 mg/kg, trastuzumab 200 mg/kg; N=4
Text: (§3) HT-29 cells were subcutaneously administered at 3.0×10^6 cells to each ICR-nu/nu mouse (male, 5 weeks old). When the tumor volume became about 50 to 200 mm^3, the above gPTX, the gPTX-L produced in Test Example 7, the gPTX-IL produced in Test Example 9, trastuzumab, the liposome (empty L) encapsulating no gPTX and having no antibody (trastuzumab) produced in Test Example 9, the liposome (empty IL) encapsulating […] and having an antibody (trastuzumab) produced in Test Example 9, a CEP buffer, or PBS was administered via tail vein two times at an interval of 3 hours (N=4). The dose per each was 200 μl/20 g. The total dose of gPTX was 150 mg/kg, and the total dose of trastuzumab was 200 mg/kg. The tumor volume shift after administration was observed. […] The tumor volume was calculated from the formula (3) below. Tumor volume=(tumor smallest diameter^2×tumor longest diameter)/2 (3)

[8] = system: BALB/c mouse; conditions: in vivo
Description: Specifically, gPTX, gPTX-L, a CEP buffer (Cremophor:ethanol:ultra-pure water=12:12:76; volume ratio), or PBS was administered via tail vein to each BALB/c mouse (female, 6 weeks old) two times with an interval of three hours (N=4). The dose per each was 200 μl/20 g. The total dose of gPTX was 150 or 100 mg/kg in view of gPTX. Observation over time was performed during and after the administration.

[9] = system: ICR-nu/nu mouse; assay: Body weight shift and survival in HT-29 bearing mice (Test Example 11); format: in vivo; conditions: total dose of gPTX 150 mg/kg; N=4
Text: as §3
The body weight shift and the survival rate in each group were measured. FIGS. 6 to 9 show the results.

Structure (SMILES) | IC50 [1] [nM] | IT50 [1] [h] | IC100 [2] [nM] | IC50 [2] [nM] | IT50 [2] [h] | IC50 [3] [nM] | IC100 [3] [nM] | IT50 [3] [h] | solubility ([5]; Concentration 2 mg/ml) [µg/mL] | solubility ([5]; Concentration 10 mg/ml) [µg/mL] | solubility ([5]; Concentration 20 mg/ml) [µg/mL] | Concentration at which dissolved [5] | further results
CC(=O)O[C@H]1C(=O)[C@@]2(C)[C@H]([C@H](OC(=O)c3ccccc3)[C@]3(O)C[C@H](OC(=O)[C@H](O)[C@@H](NC(=O)c4ccccc4)c4ccccc4)C(C)=C1C3(C)C)[C@]1(OC(C)=O)CO[C@@H]1C[C@@H]2O [PTX, paclitaxel] | 5.91 | 15.9 | 10 | 1.3 ± 0.5 | 11.9 | 5.5 ± 1.3 | 30 | 9.8 | > 2000 | < 3000 | < 3000 | about 2 mg/ml | EE (encapsulation efficiency) [4]: not encapsulated in the liposome; solubility ([5]; Concentration 3 mg/ml): < 3000 µg/mL
CC(=O)O[C@H]1C(=O)[C@@]2(C)C([C@H](OC(=O)c3ccccc3)[C@@]3(O)CC1=C(C)C(OC(=O)[C@H](O)[C@@H](NC(=O)c1ccccc1)c1ccccc1)C3)[C@]1(OC(C)=O)CO[C@@H]1C[C@H]2OC(=O)COC1OC(CO)C(O)C(O)C1O (stereo partly drawn) [gPTX, 7-α-glucosyloxyacetylpaclitaxel] | 46 | 18.7 | 50 | 11 ± 0.8 | 9.6 | 18.9 ± 1.1 | 100 | 8.3 | > 20000 | > 20000 | > 20000 | 20000 µg/mL | solubility ([6]; Ethylene glycol (EG) 10%, 10 mM phosphate buffer, read-out: Solubility of 1 mg/mL gPTX): < 1000 µg/mL; solubility ([6]; Ethylene glycol (EG) 20%, 10 mM phosphate buffer, read-out: Solubility of 1 mg/mL gPTX): < 1000 µg/mL; solubility ([6]; Ethylene glycol (EG) 30%, 10 mM phosphate buffer, read-out: Solubility of 1 mg/mL gPTX): < 1000 µg/mL; solubility ([6]; Ethylene glycol (EG) 40%, 10 mM phosphate buffer, read-out: Solubility of 1 mg/mL gPTX): > 1000 µg/mL; solubility ([6]; PBS containing 40% (volume) ethylene glycol, read-out: Solubility of gPTX): ~1000 µg/mL (≈ 956 µM); Tumor growth inhibition effect (tumor volume) [7]: remarkably excellent anti-tumor growth inhibition effect; Body weight change (FIG. 4) [8]: significant body weight loss; Mice dead one day after the administration (FIG. 3) [8]: three; Body weight shift [9]: remarkable body weight loss; Deaths after administration [9]: two mice died in three hours after the administration, and one died one week after the administration; solubility ([5]; Concentration 30 mg/ml): < 30000 µg/mL
